Activity calls are given as the source filed them.
How the values were obtained:
[1] = biological target: T1, Polyadenylate-binding protein 1 (Homo sapiens, UniProt P11940); test: MLLE binding blockers, Cy5 peptide tracer – biochemical, fluorescence polarization, Cy5-PAM2 peptide, secondary, miRNA deadenylation inhibitor project, dose response (AID 602260); type: functional; conditions: read-out: IC50_Mean
[2] = biological target: Mitochondrial peptide methionine sulfoxide reductase (Bos taurus, UniProt P54149); test: Absorbance-based biochemical high throughput dose response assay for activators of Methionine sulfoxide reductase A (MsrA).; type: functional
Chain of Mitochondrial peptide methionine sulfoxide reductase (P54149 whole entry, the tested form may be a part): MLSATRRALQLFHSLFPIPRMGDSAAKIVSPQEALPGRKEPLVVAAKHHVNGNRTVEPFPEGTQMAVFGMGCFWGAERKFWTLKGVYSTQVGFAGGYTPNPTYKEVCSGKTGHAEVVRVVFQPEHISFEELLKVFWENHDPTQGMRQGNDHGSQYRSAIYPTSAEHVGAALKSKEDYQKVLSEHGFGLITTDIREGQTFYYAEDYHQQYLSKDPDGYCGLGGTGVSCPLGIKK

[3] = biological target: T1, Polyadenylate-binding protein 1; test: MLLE domain peptide-binding blockers, IC50 – biochemical, fluorescence polarization, FITC-PAM2 peptide, dose response (AID 602259); type: functional; conditions: read-out: IC50_Mean
[4] = biological target: Melanin-concentrating hormone receptor 1 (Homo sapiens, UniProt Q99705); test: Late-stage fluorescence-based counterscreen for antagonists of the G-protein coupled receptor 7 (GPR7): cell-based dose response assay to identify antagonists of the melanin-concentrating hormone receptor 1 (MCHR1) Set 6.; type: functional
Chain of Melanin-concentrating hormone receptor 1 (Q99705 whole entry): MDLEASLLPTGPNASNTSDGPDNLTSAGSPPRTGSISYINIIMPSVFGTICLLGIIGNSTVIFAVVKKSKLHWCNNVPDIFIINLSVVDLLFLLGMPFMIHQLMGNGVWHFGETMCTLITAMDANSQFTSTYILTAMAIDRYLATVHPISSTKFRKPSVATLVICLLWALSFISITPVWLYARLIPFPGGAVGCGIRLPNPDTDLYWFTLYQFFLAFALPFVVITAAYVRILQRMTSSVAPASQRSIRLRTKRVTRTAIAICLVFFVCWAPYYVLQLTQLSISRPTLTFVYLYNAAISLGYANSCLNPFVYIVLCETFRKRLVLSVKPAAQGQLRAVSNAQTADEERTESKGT

[5] = biological target: T2, Neuropeptides B/W receptor type 1 (Homo sapiens, UniProt P48145); test: human NPBW1 receptor blockade, IC50 – cell-based, fluorescence, dose response, set 6, late-stage follow-up (AID 588583); type: functional
T2 sequence (P48145 whole entry): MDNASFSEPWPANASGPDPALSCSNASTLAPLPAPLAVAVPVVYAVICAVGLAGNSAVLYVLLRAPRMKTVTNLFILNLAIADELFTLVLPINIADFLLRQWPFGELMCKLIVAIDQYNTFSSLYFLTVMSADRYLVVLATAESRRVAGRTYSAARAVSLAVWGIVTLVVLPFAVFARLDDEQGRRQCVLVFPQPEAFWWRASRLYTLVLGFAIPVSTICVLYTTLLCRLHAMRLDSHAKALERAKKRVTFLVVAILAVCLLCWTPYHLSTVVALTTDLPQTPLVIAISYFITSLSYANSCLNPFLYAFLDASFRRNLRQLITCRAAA

[6] = biological target: Potassium voltage-gated channel subfamily KQT member 2 (Rattus norvegicus, UniProt O88943); test: blockers of KCNQ2 channel current – cell-based, automated electrophysiology, set II, rat KCNQ2, dose response (AID 588637); type: functional
[7] = biological target: T3, High affinity choline transporter 1 (Homo sapiens, UniProt Q9GZV3); test: human choline transporter blockers, potency – cell-based, 5-point CRC, membrane potential dye, dose response (AID 504840); type: functional
T3 sequence (Q9GZV3 whole entry): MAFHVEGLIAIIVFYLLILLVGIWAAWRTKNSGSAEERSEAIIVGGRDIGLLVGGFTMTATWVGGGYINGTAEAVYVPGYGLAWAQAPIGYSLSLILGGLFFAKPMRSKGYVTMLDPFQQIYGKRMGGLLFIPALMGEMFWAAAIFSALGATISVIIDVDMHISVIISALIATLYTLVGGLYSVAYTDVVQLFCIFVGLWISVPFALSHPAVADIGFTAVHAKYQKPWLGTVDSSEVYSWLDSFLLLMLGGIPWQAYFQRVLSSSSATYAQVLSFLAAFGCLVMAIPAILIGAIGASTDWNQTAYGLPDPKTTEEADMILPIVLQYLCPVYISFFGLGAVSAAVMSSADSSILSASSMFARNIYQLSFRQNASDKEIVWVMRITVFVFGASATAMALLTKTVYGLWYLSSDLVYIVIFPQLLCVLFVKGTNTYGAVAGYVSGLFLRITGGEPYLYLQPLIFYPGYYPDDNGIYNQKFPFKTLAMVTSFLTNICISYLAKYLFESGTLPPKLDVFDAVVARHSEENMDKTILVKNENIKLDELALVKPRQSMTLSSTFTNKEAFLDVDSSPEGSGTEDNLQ

[8] = biological target: T3, High affinity choline transporter 1; test: human choline transporter blockers, potency – cell-based, 10-point CRC, membrane potential dye, dose response (AID 588401); type: functional;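 note: membrane potential dye fluorescence of choline-evoked depolarization via CHT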
[9] = biological target: T4, Voltage-gated N-type calcium channel alpha-1B subunit/Amyloid beta A4 precursor protein-binding family A member 1 (Homo sapiens, UniProt Q00975+Q02410); type: protein assay
T4 sequence (Q00975 whole entry): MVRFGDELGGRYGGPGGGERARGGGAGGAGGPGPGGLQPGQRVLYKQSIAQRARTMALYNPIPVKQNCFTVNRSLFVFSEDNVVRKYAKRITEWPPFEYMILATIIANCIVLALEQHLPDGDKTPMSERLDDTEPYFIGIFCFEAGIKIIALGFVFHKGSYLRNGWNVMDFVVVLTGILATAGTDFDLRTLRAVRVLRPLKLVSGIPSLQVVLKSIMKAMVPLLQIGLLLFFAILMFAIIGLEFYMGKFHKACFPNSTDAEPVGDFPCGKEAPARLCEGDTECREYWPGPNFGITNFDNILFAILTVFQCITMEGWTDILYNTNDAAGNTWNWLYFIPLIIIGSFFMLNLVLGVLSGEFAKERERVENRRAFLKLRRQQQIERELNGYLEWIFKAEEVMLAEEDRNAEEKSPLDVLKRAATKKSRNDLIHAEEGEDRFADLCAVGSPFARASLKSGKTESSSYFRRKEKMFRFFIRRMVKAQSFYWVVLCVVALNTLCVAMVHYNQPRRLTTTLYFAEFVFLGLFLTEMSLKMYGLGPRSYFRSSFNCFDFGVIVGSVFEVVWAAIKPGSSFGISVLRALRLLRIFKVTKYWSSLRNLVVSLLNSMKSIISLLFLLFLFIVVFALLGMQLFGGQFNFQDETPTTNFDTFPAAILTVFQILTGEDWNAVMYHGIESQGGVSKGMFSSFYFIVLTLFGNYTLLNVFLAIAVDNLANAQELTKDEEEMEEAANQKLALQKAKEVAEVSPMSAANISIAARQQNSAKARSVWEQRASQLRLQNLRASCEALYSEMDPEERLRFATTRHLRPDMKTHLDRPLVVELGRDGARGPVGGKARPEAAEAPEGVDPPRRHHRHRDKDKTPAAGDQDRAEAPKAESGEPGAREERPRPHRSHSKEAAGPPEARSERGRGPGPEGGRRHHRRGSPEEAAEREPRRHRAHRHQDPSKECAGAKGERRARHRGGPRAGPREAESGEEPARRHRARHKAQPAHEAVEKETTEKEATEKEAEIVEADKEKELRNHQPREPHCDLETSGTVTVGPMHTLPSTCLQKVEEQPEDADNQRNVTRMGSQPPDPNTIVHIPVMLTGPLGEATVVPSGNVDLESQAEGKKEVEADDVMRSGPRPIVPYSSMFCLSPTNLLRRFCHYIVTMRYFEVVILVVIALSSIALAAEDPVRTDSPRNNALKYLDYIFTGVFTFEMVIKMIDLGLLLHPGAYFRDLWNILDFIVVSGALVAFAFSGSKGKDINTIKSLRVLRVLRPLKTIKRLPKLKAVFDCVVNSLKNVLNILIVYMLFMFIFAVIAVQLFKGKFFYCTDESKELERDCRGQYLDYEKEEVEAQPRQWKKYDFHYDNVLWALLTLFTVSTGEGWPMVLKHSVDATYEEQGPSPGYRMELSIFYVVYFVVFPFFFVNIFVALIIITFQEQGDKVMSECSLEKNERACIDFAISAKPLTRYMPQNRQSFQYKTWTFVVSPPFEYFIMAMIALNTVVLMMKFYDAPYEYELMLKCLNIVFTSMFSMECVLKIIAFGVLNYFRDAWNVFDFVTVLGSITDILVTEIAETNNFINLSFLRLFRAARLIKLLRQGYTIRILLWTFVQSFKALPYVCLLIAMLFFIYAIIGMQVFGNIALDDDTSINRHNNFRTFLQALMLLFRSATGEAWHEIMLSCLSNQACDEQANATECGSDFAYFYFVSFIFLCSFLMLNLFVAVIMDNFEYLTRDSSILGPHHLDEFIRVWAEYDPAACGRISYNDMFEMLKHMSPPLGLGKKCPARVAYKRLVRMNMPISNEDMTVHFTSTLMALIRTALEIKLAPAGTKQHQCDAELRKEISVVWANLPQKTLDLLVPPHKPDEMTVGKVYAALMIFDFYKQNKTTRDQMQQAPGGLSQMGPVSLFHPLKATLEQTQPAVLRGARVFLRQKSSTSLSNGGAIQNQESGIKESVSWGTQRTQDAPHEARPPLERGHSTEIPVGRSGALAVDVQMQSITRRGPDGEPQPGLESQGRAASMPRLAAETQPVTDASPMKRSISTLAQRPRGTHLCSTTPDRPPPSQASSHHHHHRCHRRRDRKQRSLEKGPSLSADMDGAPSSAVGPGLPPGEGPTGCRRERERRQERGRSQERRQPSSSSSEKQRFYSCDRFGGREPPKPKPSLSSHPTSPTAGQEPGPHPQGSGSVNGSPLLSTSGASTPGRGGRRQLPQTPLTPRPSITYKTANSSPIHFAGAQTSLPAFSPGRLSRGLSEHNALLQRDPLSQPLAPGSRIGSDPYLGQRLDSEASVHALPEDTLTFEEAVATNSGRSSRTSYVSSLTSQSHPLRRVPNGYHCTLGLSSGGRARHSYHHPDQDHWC
T4 sequence (Q02410 whole entry): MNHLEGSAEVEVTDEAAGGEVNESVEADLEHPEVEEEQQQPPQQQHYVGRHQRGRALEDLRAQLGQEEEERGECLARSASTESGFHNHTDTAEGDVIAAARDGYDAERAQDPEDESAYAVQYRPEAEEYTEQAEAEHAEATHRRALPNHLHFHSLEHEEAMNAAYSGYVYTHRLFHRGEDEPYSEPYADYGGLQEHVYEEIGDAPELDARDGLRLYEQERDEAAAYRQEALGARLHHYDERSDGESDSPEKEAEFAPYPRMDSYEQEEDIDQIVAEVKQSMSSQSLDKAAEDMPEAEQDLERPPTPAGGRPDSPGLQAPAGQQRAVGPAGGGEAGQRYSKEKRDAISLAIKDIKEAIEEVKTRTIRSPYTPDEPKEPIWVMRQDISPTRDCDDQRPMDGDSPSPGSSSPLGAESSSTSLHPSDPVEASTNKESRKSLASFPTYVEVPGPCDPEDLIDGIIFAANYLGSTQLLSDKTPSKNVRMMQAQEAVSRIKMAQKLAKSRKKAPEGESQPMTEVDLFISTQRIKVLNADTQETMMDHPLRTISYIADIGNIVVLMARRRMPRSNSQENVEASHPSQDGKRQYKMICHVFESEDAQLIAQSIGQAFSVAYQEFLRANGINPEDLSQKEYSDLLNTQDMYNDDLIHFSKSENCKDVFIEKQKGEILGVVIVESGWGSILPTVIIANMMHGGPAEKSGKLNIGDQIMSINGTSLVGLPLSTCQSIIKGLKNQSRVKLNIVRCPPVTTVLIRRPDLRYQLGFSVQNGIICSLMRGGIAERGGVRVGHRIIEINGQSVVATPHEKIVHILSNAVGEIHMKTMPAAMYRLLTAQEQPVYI

[10] = biological target: T4, Voltage-gated N-type calcium channel alpha-1B subunit/Amyloid beta A4 precursor protein-binding family A member 1; type: protein assay; remark: listed apart in the source
CHO-K1 = test: (§1) Counterscreen for antagonists of the orexin 1 receptor (OX1R; HCRTR1): Homogeneous time resolved fluorescence (HTRF)-based cell-based dose response assay to identify antagonists of the parental CHO-K1 cell line. [Related pubchem assays (depositor defined):AID434989, AID435008, AID463079, AID485270, AID492963, AID492964, AID492965, AID493232, AID504699, AID504701]; type: functional; conditions: Cricetulus griseus
Trypsin = Trypsin (Sus scrofa, UniProt P00761); test: trypsin protease activity blockade – biochemical, quenched peptide fluorescence, cherry-pick, selectivity assay for Rce1 protease inhibitor project, dose response (AID 488789)
[11] = as §1, with “Fluorescence-based” for “Homogeneous time resolved fluorescence (HTRF)-based”, “cell-based high throughput” for “cell-based”, “CHO” for “CHO-K1”; type: functional
[12] = biological target: T5, Orexin/Hypocretin receptor type 1 (Homo sapiens, UniProt O43613); test: Homogeneous Time Resolved Fluorescence (HTRF)-based cell-based high throughput dose response assay for antagonists of the orexin 1 receptor (OX1R; HCRTR1). [Related pubchem assays (depositor defined):AID434989, AID435008, AID463079, AID485270, AID492963, AID492964, AID492965, AID493232, AID504717, AID504718]; type: functional
T5 sequence (O43613 whole entry): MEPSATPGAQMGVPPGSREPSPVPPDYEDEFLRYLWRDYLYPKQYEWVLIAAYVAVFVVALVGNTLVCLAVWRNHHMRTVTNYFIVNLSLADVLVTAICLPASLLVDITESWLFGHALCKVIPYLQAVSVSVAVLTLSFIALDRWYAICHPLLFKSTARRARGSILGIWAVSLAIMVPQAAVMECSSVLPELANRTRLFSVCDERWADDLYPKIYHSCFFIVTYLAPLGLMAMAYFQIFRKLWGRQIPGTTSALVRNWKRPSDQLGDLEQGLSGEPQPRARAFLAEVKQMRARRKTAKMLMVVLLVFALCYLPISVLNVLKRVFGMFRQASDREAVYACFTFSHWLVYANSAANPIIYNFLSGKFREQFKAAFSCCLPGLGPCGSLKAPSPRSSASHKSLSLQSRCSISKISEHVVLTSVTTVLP

[13] = biological target: T5, Orexin/Hypocretin receptor type 1; test: Fluorescence-based cell-based high throughput dose response assay for antagonists of the orexin 1 receptor (OX1R; HCRTR1). [Related pubchem assays (depositor defined):AID434989, AID435008, AID463079, AID485270, AID492963, AID492964, AID492965, AID493232, AID504717, AID504718]; type: functional
Orexin receptor type 2 [14] = biological target: T6, Orexin receptor type 2 (Homo sapiens, UniProt O43614); test: Counterscreen assay for antagonists of the orexin 1 receptor (OX1R; HCRTR1): Fluorescence-based cell-based dose response assay for antagonists of the orexin 2 receptor (OX2R; HCRTR2), run by assay provider.; type: functional
T6 sequence (O43614 whole entry): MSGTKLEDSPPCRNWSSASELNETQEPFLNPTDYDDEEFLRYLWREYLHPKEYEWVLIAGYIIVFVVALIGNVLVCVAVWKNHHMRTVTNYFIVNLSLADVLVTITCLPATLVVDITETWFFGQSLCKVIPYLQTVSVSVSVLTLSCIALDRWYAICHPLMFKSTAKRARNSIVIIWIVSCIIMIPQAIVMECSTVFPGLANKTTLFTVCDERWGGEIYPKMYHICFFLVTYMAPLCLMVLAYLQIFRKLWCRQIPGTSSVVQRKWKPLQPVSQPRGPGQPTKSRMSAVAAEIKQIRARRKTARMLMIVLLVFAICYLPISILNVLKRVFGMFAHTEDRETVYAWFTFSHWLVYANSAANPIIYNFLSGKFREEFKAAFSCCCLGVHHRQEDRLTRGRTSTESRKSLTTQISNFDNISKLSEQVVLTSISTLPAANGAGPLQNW

Orexin receptor type 2 [15] = biological target: T6, Orexin receptor type 2; test: Counterscreen assay for antagonists of the orexin 1 receptor (OX1R; HCRTR1): Homogeneous Time Resolved Fluorescence (HTRF)-based cell-based dose response assay for antagonists of the orexin 2 receptor (OX2R; HCRTR2), run by assay provider.; type: functional
[16] = biological target: Aryl hydrocarbon receptor (Homo sapiens, UniProt P35869); conditions: Potency;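 note: confirmatory quantitative high-throughput screen measuring activation of the AhR signaling pathway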
Nonstructural protein 1 = Nonstructural protein 1 (Influenza A virus, UniProt Q194T2); type: functional, Influenza A virus (A/California/07/2009(H1N1))
Chain of Nonstructural protein 1 (Q194T2 whole entry): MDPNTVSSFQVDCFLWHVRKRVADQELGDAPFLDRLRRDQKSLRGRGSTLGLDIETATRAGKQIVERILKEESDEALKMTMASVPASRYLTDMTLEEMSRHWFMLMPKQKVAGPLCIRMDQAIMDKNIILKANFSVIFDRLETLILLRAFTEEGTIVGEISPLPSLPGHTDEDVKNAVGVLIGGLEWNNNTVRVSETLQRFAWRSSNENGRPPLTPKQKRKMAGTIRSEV

[17] = bead-based luminescence quenchers, dual-tagged ARNT – biochemical, AlphaScreen, cherry-pick, artefact control for ARNT-TACC3 interaction inhibitor project, dose response (AID 651705); type: functional;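 note: AlphaScreen bead proximity signal that flags compounds interfering with the detection technology; potency reflects signal decrease which marks the compound as an assay artifact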
[18] = viability of uninfected HEp-2 cells – cell-based, HTS, cytotoxicity control for RSV inhibitor project, dose response (AID 2410); type: functional; conditions: human respiratory syncytial virus
[19] = biological target: Heat shock protein HSP 90-alpha (Homo sapiens, UniProt P07900); type: functional, organism-based
Melanocortin receptor 4 = Melanocortin receptor 4 (Homo sapiens, UniProt P32245); type: functional, cell-based;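 note: Cell-based assay with luminescence read-out, confirmatory dose-response testing for agonist activity of biased ligands at MC4R; human U2OS cells with tagged receptor and beta-arrestin; potency of agonists that increase receptor coupling to beta-arrestin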
Chain of Melanocortin receptor 4 (P32245 whole entry): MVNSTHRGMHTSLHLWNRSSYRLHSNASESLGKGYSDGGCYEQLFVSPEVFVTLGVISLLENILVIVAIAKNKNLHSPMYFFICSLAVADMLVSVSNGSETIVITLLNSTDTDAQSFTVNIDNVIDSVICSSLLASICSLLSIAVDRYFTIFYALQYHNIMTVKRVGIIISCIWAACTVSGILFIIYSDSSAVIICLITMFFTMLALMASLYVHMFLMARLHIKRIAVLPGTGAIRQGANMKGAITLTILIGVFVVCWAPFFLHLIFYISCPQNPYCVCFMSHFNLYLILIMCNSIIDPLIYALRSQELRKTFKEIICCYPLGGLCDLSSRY

T1 sequence (P11940 whole entry): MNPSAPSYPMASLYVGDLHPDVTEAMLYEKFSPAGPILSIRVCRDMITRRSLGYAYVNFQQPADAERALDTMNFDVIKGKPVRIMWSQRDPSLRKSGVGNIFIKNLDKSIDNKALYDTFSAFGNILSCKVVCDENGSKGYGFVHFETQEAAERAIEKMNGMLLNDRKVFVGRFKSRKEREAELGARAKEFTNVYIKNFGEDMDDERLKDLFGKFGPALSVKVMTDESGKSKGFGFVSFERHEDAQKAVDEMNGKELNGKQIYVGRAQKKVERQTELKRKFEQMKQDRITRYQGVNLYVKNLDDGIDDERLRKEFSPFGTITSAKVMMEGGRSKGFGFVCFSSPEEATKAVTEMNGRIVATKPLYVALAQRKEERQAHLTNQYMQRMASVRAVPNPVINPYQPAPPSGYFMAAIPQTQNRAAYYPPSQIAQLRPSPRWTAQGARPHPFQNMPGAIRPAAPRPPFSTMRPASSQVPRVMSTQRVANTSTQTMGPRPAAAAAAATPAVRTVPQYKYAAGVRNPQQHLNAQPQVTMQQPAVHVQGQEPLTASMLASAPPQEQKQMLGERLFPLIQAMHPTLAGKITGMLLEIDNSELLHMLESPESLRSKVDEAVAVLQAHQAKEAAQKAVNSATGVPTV

## CC(C)CNc1nc(S)nc(N(C)C)n1
[1]
  IC50: > 66 µM (inactive)
[2]
  EC50: > 104 µM (inactive)
[3]
  IC50: > 66 µM (inactive)

## COc1ccc(Oc2c(CCl)cnn(Cc3cccc4ccccc34)c2=O)cc1
[4]
  IC50: 2.87 µM (active)
[5]
  IC50: 2.87 µM (active)

## COc1ccccc1CC(=O)NC1CCCc2ccccc21 (configuration not stated)
[6]
  IC50: 9.28 µM (active)

## O=C(CSc1c2c(nc3ccc(Cl)cc13)CCCC2)NCCCN1CCOCC1
[7]
  IC50: 4.29 µM (active)
[8]
  IC50: 4.47 µM (active)

## O=C(CN1C(=O)/C(=C\c2cccc(Br)c2)Oc2ccccc21)NCC1CCCO1 (configuration not stated)
[9]
  IC50: 4.98 µM (active)
[10]
  IC50: > 50 µM (inactive)
CHO-K1
  IC50: > 66.2 µM (inactive)
Trypsin
  AC50: 4.3 µM (active)
[11]
  IC50: > 49.8 µM (inactive)
[12]
  IC50: 0.314 µM (active)
[13]
  IC50: 1.08 µM (active)
Orexin receptor type 2 [14]
  IC50: > 88.8 µM (inactive)
Orexin receptor type 2 [15]
  IC50: > 50 µM (inactive)

## N#CCc1c(Cl)cnn(Cc2cccc3ccccc23)c1=O
[4]
  IC50: 2.69 µM (active)
[5]
  IC50: 2.69 µM (active)

## O=[N+]([O-])Nc1nccn1Cc1ccc(Cl)nc1 [DEHYDROIMIDACLOPRID]
[16]
  AC50: 39.8 µM (inconclusive)

## O=C(COC(=O)c1ccccn1)c1cccc(Br)c1
Nonstructural protein 1
  IC50: 25.6 µM (active)
[17]
  AC50: 91 µM (active)

## Oc1c(Br)cc(Br)cc1/C=N\c1cccnc1
[18]
  CC50: 17.3 µM (active)
[19]
  AC50: 3.09 µM (active)
[7]
  IC50: 4.37 µM (active)
[8]
  IC50: 2.99 µM (active)

## O=C(NC(c1ccccc1)c1ccc2ccccc2n1)C1CCN(CCOc2ccc(Cl)cc2Cl)CC1 (configuration not stated)
Melanocortin receptor 4
  EC50: > 89.2 µM (inactive)

Source: ChEMBL document CHEMBL1201862, “PubChem BioAssay data set” (2004)
